Patent publication US20060030615A1, “Progesterone receptor modulators comprising pyrrole-oxindole derivatives and uses thereof” (Wyeth, priority 2004, published 2006)

tested on: rat uterine decidualization; experiment: Rat Decidualization Assay (mature ovariectomized rats); format: in vivo; details: rat decidual assay, po
Method: B. Progestational and Antiprogestational Activity in Mature Ovariectomized Rats (Rat Decidualization Assay)
This assay is used to evaluate the effect of progestins and antiprogestins on rat uterine decidualization and compare the relative potencies of various test compounds.
Test compounds are dissolved in 100% ethanol and mixed with corn oil (vehicle). Stock solutions of the test compounds in oil (Mazola™) are then prepared by heating (˜80° C.) the mixture to evaporate ethanol. Test compounds are subsequently diluted with 100% corn oil or 10% ethanol in corn oil prior to the treatment of animals. No difference in decidual response was found when these two vehicles were compared. […]
Approximately 24 hr after the third injection, decidualization is induced in one of the uterine horns of anesthetized rats by scratching the antimesometrial luminal epithelium with a blunt 21 G needle. […] Approximately 24 hr following the final treatment, rats are sacrificed by CO asphyxiation and body weight measured. […]
In agonist mode, the increase in weight of the decidualized uterine horn is calculated by D-horn/C-horn and logarithmic transformation is used to maximize normality and homogeneity of variance. […] EC50 is calculated from the transformed value. […] IC50 is calculated from the retransformed value. […]

With `Cn1c(C#N)ccc1-c1ccc2c(c1)C(C)(C)C(=O)N2` [5-(3,3-dimethyl-2-oxo-2,3-dihydro-1H-indol-5-yl)-1-methyl-1H-pyrrole-2-carbonitrile] the ED50 was 0.2 mg/k.

tested on: not given; experiment: not given; details: not given

`CCC1(CC)C(=O)Nc2ccc(-c3ccc(C#N)n3C)cc21` [5-(3,3-Diethyl-2-oxo-2,3-dihydro-1H-indol-5-yl)-1-methyl-1H-pyrrole-2-carbonitrile] showed a melting point of 233 to 235 °C.

molecular target: T1, progesterone receptor (Homo sapiens, UniProt P06401); experiment: T47D Cell Alkaline Phosphatase Assay; format: cell-based; details: antagonist mode, T47D cells, in the presence of 1 nM progesterone, 24 hours
T1 construct: Effects of Progestins and Antiprogestins on Alkaline Phosphatase Activity in T47D cells; endogenous in cells; host or cells: T47D cells
T1 sequence (P06401 1-933): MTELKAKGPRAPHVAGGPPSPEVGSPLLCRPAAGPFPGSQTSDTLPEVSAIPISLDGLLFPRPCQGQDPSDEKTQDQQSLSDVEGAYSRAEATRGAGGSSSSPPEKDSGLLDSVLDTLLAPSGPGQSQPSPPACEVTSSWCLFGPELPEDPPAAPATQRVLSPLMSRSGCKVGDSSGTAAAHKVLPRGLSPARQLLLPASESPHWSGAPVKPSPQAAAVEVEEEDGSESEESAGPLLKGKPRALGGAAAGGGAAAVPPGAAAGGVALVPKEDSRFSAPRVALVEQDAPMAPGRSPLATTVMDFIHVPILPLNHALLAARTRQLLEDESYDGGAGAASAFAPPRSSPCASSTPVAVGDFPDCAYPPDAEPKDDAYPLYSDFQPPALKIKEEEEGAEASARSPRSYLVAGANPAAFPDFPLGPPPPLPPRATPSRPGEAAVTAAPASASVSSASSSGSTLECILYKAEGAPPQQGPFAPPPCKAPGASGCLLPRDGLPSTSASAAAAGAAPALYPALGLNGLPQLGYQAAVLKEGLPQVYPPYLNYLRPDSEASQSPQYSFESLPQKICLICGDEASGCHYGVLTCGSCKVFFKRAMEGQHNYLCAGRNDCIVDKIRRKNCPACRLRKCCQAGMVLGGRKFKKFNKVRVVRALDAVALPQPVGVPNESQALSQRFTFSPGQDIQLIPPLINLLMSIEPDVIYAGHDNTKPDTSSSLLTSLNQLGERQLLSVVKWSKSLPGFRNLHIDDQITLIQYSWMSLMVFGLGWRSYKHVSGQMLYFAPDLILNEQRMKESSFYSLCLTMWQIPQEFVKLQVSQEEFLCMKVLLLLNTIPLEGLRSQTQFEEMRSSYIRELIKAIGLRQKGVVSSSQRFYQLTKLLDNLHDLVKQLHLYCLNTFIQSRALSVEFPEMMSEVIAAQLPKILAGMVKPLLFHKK
Method: A. Effects of Progestins and Antiprogestins on Alkaline Phosphatase Activity in T47D cells (T47D Alkaline Phosphatase Assay)
The molecules of the present invention are anticipated to be active in the antagonist mode in the T47D alkaline phosphatase assay at concentrations of 3 μM or lower.
Culture medium: DMEM:F12 (1:1) (GIBCO, BRL) supplemented with 5% (v/v) charcoal stripped fetal bovine serum (not heat-inactivated), 100 U/ml penicillin, 100 μg/ml streptomycin, and 2 mM GlutaMax (GIBCO, BRL).
Alkaline phosphatase assay buffer: I. 0.1M Tris-HCI, pH 9.8, containing 0.2% Triton X-100, 0.1M Tris-HCI, pH 9.8, containing 4 mM p-nitrophenyl phosphate (Sigma).
2. Cell Culture And Treatment:
Frozen T47D cells are thawed in a 37° C. water bath and diluted to 280,000 cells/ml in culture medium. To each well in a 96-well plate (Falcon, Becton Dickinson Labware), 180 μl of diluted cell suspension is added. Twenty μl of reference or test compounds diluted in the culture medium is then added to each well. When testing for progestin antagonist activity, reference antiprogestins or test compounds are added in the presence of 1 nM progesterone. The cells are incubated at 37° C. in a 5% CO2 humidified atmosphere for 24 hours. For high throughput screening, one concentration of each compound will be tested at 0.3 μg/ml. Based on an average molecular weight of 300 g/mol for the compounds in the library, the concentration is approximately 1 μM. Subsequently, active compounds will be tested in dose response assays to determine EC50 and IC50.
3. Alkaline Phosphatase Enzyme Assay:
At the end of treatment, the medium is removed from the plate. Fifty μl of assay buffer I is added to each well. The plates are shaken in a titer plate shaker for 15 min. Then 150 μl of assay buffer II is added to each well. Optical density measurements are taken at 5 min intervals for 30 min. at a test wavelength of 405 nm.
4. Analysis of Dose-Response Data.
For reference and test compounds, a dose response curve is generated for dose vs. the rate of enzyme reaction (slope). Square root-transformed data are used for analysis of variance and nonlinear dose response curve fitting for both agonist and antagonist modes. Huber weighting is used to down-weight the effects of outliers. EC50 or IC50 values are calculated from the retransformed values. JMP software (SAS Institute, Inc.) is used for both one-way analysis of variance and non-4 linear dose response analysis in both single dose and dose response studies.
Progesterone and trimegestone are reference progestins and RU486 is the reference antiprogestin. All reference compounds are run in full dose response curves and the EC50 and IC50 values are calculated.

`CCC1C(=O)Nc2ccc(-c3ccc(C#N)n3C)cc21` (racemic) [5-(3-ethyl-2-oxo-2,3-dihydro-1H-indol-5-yl)-1-methyl-1H-pyrrole-2-carbonitrile] and `CC[C@H]1C(=O)Nc2ccc(-c3ccc(C#N)n3C)cc21` (single isomer, unassigned) are within 1.5-fold of each other in IC50: 5.7 nM for the first, 6.1 nM for the second.

Going from `CC[C@@]1(C)C(=O)Nc2ccc(-c3ccc(C#N)n3C)cc21` (single isomer, unassigned) to `CC[C@]1(C)C(=O)Nc2ccc(-c3ccc(C#N)n3C)cc21` (single isomer, unassigned), the IC50 rises from 3.2 nM to 7.4 nM (2.3-fold).

First: CC[C@@H]1C(=O)Nc2ccc(-c3ccc(C#N)n3C)cc21 (single isomer, unassigned)
Second: Cn1c(C#N)ccc1-c1ccc2c(c1)CC(=O)N2 [1-methyl-5-(2-oxo-2,3-dihydro-1H-indol-5-yl)-1H-pyrrole-2-carbonitrile]
The IC50 of the first is 1.6-fold lower: 13.1 nM for the first, 20.4 nM for the second. The first is the more potent here.

`CN1C(=O)C(C)(C)c2cc(-c3ccc(C#N)n3C)ccc21` [1-methyl-5-(1,3,3-trimethyl-2-oxo-2,3-dihydro-1H-indol-5-yl)-1H-pyrrole-2-carbonitrile] and `Cn1c(C#N)ccc1-c1ccc2c(c1)C(C)(C)C(=O)N2` [5-(3,3-dimethyl-2-oxo-2,3-dihydro-1H-indol-5-yl)-1-methyl-1H-pyrrole-2-carbonitrile] are within 1.5-fold of each other in IC50: 13.3 nM for the first, 10 nM for the second.

Going from `Cn1c(C#N)ccc1-c1ccc2c(c1)C1(CCC1)C(=O)N2` [1-methyl-5-(2′-oxo-1′,2′-dihydrospiro[cyclobutane-1,3′-indol]-5′-yl)-1H-pyrrole-2-carbonitrile] to `Cn1c(C#N)ccc1-c1ccc2c(c1)C1(CC1)C(=O)N2` [1-methyl-5-(2′-oxo-1′,2′-dihydrospiro[cyclopropane-1,3′-indol]-5′-yl)-1H-pyrrole-2-carbonitrile], the IC50 rises from 1 nM to 8.1 nM (8.1-fold). The first is the more potent here.

Compared with `Cn1c(C#N)ccc1-c1ccc2c(c1)C1(CCCC1)C(=O)N2` [1-methyl-5-(2′-oxo-1′,2′-dihydrospiro[cyclopentane-1,3′-indol]-5′-yl)-1H-pyrrole-2-carbonitrile], `CC(C)(C)OC(=O)n1c(C#N)ccc1-c1ccc2c(c1)C1(CCCC1)C(=O)N2` [2-Cyano-5-(1,2-dihydro-2-oxospiro[cyclopentane-1,3-[3H]indol]-5-yl)-1H-pyrrole-1-carboxylic acid, tert-butyl ester] is 10-fold higher in IC50: 30 nM for the first, 300 nM for the second. The first is the more potent here.

Compared with `N#Cc1ccc(-c2ccc3c(c2)C2(CCCC2)C(=O)N3)[nH]1` [5-(1,2-Dihydro-2-oxospiro[cyclopentane-1,3-[3H]indol]-5-yl)-1H-pyrrole-2-carbonitrile], `CC1(C)C(=O)Nc2ccc(-c3ccc(C#N)[nH]3)cc21` [5-(3,3-Dimethyl-2-oxo-2,3-dihydro-1H-indol-5-yl)-1H-pyrrole-2-carbonitrile] is 2.2-fold lower in IC50: 60 nM for the first, 27.2 nM for the second.

Compared with `CN1C(=O)C(C)(C)c2cc(-c3ccc(C#N)[nH]3)ccc21` [5-(1,3,3-trimethyl-2-oxo-2,3-dihydro-1H-indol-5-yl)-1H-pyrrole-2-carbonitrile], `CCC1(CC)C(=O)Nc2ccc(-c3ccc(C#N)n3C)cc21` [5-(3,3-Diethyl-2-oxo-2,3-dihydro-1H-indol-5-yl)-1-methyl-1H-pyrrole-2-carbonitrile] is 22-fold lower in IC50: 72.9 nM for the first, 3.3 nM for the second.
